In general, pIC50 refers to −log10 of the IC50, conventionally taken in molar units. For orientation: inhibition means how much of the control response was suppressed.

Assay [1] concerns SW480. The experiment in a line: Antagonistic cytotoxicity against human SW480 cells measured after 3 days in presence of 5 uM 2(((24(2,4-dichlorobenzyl)oxy)naphthalen-1-yl)methyl)amino)ethan-1-ol by SRB assay. The conditions noted are these: SW480, 72 h. It counts as functional, cell-based. In general terms: Sulforhodamine B stains cellular protein and so reports cell mass.
Assay [2] has as its system SW480. Kind of assay: Antagonistic cytotoxicity against human SW480 cells measured after 3 days in presence of 50 nM AZD0156 by SRB assay. The following applies: SW480, 72 h. The assay is classed as functional, cell-based.
Assay [3] relates to SW480. Kind of assay: Antagonistic cytotoxicity against human SW480 cells assessed as combination index measured after 3 days in presence of 5 uM KU60019 by SRB assay. The following applies: time 3 day. The assay is classed as functional.
The test system of assay [4] is MCF7. The experiment in a line: Synergistic cytotoxicity against human MCF7 cells assessed as combination index measured after 6 days in presence of 5 uM KU55933 by SRB assay. The assay is classed as functional. The following applies: time 6 day.
The test system of assay [5] is MCF7. The experiment in a line: Additive cytotoxicity against human MCF7 cells assessed as combination index in presence of 10 uM 3-Chloro-4-methoxy-N-((4-(oxazolo[4,5-b]pyridin-2-yl)phenyl)carbamothioyl)benzamide measured after 6 days by SRB assay. The assay is classed as functional. The following applies: time 6 day.
Assay [6] deals with MCF7. The experiment in a line: Induction of apoptosis in human MCF7 cells at 62 nM in presence of 1 to 5 uM KU60019 measured after 6 days by Annexin V-FITC/propidium iodide staining based flow cytometry analysis. The assay is classed as functional, cell-based. The following applies: time 6.0 day. In general terms: A flow cytometer gives signals particle by particle.
Assay [7] has as its system MCF7. The experiment in a line: Induction of apoptosis in human MCF7 cells at 62 nM in presence of 50 nM AZD0156 measured after 6 days by Annexin V-FITC/propidium iodide staining based flow cytometry analysis. It counts as functional, cell-based. The conditions noted are these: time 6.0 day.
The subject of assay [8] is MCF7. Kind of assay: Induction of cell cycle arrest in human MCF7 cells assessed as accumulation of cells at S-phase measured after 24 hrs by PI staining based flow cytometric analysis. The assay is classed as functional. The conditions noted are these: DDE = dose-dependent effect.
Assay [9] has as its system MCF7. Kind of assay: Induction of cell cycle arrest in human MCF7 cells assessed as accumulation of cells at S-phase in presence of 5 uM KU60019 measured after 24 hrs by PI staining based flow cytometric analysis. The assay is classed as functional.
For assay [10], the system named is MCF7. Kind of assay: Induction of cell cycle arrest in human MCF7 cells assessed as decrease in accumulation of cells at G1-phase in presence of 5 uM KU60019 measured after 24 hrs by PI staining based flow cytometric analysis. It counts as functional.
Assay [11] deals with T1, Serine-protein kinase ATM (Homo sapiens, UniProt Q13315). Kind of assay: Inhibition of ATM (unknown origin) assessed as decrease in phosphorylation of ATM at 25 uM measured in presence of 1 to 5 uM KU60019 by Western blot analysis. (In general: In western blotting, separated proteins are transferred to a membrane and probed.)
T1 sequence (Q13315 whole entry): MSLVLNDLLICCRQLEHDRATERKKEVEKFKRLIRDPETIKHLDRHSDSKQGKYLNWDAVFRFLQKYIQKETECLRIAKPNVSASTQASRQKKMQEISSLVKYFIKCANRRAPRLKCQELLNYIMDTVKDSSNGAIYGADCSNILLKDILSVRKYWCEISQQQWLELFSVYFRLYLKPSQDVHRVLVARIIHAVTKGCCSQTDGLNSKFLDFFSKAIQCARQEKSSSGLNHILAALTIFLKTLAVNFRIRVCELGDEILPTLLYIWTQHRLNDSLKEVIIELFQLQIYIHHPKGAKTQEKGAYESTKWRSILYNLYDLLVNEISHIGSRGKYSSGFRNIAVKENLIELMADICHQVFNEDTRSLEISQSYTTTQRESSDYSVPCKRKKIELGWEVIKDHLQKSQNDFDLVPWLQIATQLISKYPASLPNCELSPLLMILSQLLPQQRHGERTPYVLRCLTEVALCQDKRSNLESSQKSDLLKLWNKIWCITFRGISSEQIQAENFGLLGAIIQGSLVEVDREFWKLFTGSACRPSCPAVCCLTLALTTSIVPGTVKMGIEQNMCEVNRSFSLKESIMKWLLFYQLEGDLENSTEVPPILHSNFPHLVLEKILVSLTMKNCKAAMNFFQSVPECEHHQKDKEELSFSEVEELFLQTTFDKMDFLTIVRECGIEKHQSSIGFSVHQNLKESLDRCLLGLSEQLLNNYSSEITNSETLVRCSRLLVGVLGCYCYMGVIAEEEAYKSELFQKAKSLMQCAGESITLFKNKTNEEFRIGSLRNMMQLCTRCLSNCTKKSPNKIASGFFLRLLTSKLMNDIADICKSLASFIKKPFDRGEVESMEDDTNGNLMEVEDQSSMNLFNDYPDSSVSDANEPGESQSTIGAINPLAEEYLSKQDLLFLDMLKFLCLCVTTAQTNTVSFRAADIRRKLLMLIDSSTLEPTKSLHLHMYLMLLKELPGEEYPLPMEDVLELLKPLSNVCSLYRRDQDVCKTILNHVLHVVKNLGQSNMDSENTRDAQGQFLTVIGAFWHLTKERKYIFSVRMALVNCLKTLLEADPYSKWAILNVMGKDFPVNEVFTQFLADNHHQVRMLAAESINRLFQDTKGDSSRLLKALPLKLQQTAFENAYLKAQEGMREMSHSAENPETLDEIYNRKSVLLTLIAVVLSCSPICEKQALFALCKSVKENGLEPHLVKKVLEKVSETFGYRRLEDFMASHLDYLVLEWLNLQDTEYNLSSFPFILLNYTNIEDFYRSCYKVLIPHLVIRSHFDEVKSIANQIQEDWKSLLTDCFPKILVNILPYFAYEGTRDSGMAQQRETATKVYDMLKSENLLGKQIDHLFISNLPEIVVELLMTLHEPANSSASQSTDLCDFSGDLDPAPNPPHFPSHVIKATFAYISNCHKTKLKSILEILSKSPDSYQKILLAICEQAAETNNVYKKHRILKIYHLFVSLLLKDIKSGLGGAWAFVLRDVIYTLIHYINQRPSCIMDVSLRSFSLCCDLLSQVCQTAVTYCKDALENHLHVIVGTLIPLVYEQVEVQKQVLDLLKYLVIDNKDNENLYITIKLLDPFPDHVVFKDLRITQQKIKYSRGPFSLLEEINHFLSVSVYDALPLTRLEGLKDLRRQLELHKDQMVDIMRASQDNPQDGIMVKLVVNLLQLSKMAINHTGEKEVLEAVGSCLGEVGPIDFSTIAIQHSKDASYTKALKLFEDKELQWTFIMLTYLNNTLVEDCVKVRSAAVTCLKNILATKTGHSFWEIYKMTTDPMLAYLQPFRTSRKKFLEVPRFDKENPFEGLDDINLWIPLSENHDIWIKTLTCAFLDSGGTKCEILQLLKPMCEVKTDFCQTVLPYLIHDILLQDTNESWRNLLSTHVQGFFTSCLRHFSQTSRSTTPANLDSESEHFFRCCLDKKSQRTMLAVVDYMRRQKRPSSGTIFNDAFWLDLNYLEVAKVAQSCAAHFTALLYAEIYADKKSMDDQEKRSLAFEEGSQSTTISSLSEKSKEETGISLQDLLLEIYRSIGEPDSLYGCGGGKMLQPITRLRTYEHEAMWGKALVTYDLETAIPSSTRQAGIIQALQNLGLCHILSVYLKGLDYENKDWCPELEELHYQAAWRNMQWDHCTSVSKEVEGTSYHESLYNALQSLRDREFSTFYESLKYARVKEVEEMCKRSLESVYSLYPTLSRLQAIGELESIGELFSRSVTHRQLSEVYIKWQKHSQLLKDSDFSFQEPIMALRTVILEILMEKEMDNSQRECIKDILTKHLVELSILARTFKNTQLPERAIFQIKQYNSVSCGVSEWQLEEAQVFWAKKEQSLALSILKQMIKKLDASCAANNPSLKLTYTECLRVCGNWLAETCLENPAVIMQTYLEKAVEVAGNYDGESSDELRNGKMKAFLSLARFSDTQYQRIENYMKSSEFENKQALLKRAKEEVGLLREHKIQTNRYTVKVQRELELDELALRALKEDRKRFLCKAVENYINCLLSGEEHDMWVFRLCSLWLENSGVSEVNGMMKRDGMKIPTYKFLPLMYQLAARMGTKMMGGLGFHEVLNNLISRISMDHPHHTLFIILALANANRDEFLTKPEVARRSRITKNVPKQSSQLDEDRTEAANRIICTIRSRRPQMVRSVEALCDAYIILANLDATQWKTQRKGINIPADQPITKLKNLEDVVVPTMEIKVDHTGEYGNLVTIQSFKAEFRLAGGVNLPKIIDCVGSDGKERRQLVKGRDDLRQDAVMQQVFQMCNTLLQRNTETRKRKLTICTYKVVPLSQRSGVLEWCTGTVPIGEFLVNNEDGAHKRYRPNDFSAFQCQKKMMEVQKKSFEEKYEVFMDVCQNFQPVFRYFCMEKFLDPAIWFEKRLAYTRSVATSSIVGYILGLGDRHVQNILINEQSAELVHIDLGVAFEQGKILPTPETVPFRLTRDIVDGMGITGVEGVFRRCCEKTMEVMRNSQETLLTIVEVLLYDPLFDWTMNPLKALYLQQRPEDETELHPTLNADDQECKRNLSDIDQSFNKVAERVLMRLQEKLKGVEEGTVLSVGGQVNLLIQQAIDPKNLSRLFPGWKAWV
Assay [12] has as its target T1, Serine-protein kinase ATM. Kind of assay: Inhibition of ATM (unknown origin) assessed as decrease in phosphorylation of ATM at 25 uM measured in presence of 50 nM AZD0156 by Western blot analysis.
For assay [13], the target named is T1, Serine-protein kinase ATM. Kind of assay: Inhibition of ATM (unknown origin) assessed as decrease in phosphorylation of KAP1 at 25 uM measured in presence of 1 to 5 uM KU60019 by Western blot analysis.
Assay [14] deals with T1, Serine-protein kinase ATM. Kind of assay: Inhibition of ATM (unknown origin) assessed as decrease in phosphorylation of KAP1 at 25 uM measured in presence of 50 nM AZD0156 by Western blot analysis.
The target in assay [15] is T1, Serine-protein kinase ATM. The experiment in a line: Inhibition of ATM (unknown origin) assessed as decrease in phosphorylation of p21 at 25 uM measured in presence of 1 uM KU60019 by Western blot analysis.
The target in assay [16] is T1, Serine-protein kinase ATM. Kind of assay: Inhibition of ATM (unknown origin) assessed as decrease in phosphorylation of p21 at 25 uM measured in presence of 5 uM KU60019 by Western blot analysis.
In assay [17] the target is T1, Serine-protein kinase ATM. Kind of assay: Inhibition of ATM (unknown origin) assessed as decrease in phosphorylation of p21 at 25 uM measured in presence of 50 nM AZD0156 by Western blot analysis.
Assay [18] relates to NCI-H1299. Kind of assay: Synergistic cytotoxicity against human NCI-H1299 cells measured in presence of 5 uM KU60019 after 2 days by SRB assay. The following applies: NCI-H1299, 48 h. It counts as functional, cell-based.
Assay [19] concerns NCI-H1299. The experiment in a line: Synergistic cytotoxicity against human NCI-H1299 cells measured in presence of 50 nM AZD0156 after 2 days by SRB assay. It counts as functional, cell-based. The following applies: NCI-H1299, 48 h.
Assay [20] relates to NCI-H1299. Kind of assay: Synergistic cytotoxicity against human NCI-H1299 cells assessed as combination index measured in presence of 5 uM KU60019 after 2 days by SRB assay. The assay is classed as functional. The conditions noted are these: time 2 day.
Assay [21] deals with NCI-H1299. The experiment in a line: Synergistic cytotoxicity against human NCI-H1299 cells assessed as combination index measured in presence of 50 nM AZD0156 after 2 days by SRB assay. The following applies: time 2 day. It counts as functional.
Assay [22] concerns NCI-H1299. Kind of assay: Additive cytotoxicity against human NCI-H1299 cells assessed as combination index measured in presence of 5 uM KU55933 after 6 days by SRB assay. It counts as functional. The conditions noted are these: time 6 day.
The test system of assay [23] is MCF7. The experiment in a line: cells. The following applies: Homo sapiens, MCF7, 144 h.
For assay [24], the system named is MCF7. Kind of assay: cells. The conditions noted are these: Homo sapiens, MCF7, 144 h. This is another data set of the same source.
The test system of assay [25] is MCF7. Kind of assay: Additive cytotoxicity against human MCF7 cells measured after 6 days in presence of 5 uM KU55933 by SRB assay. The assay is classed as functional. The conditions noted are these: time 6 day.
For assay [26], the system named is MCF7. The experiment in a line: Additive cytotoxicity against human MCF7 cells assessed as combination index measured after 6 days in presence of 5 uM KU55933 by SRB assay. The assay is classed as functional. The conditions noted are these: time 6 day.
Assay [27] concerns MCF7. Kind of assay: Antagonistic cytotoxicity against human MCF7 cells in presence of 30 uM 3-Chloro-4-methoxy-N-((4-(oxazolo[4,5-b]pyridin-2-yl)phenyl)carbamothioyl)benzamide measured after 6 days by SRB assay. It counts as functional, cell-based. The following applies: MCF7, 144 h.
Assay [28] relates to MCF7. Kind of assay: Antagonistic cytotoxicity against human MCF7 cells assessed as combination index in presence of 30 uM 3-Chloro-4-methoxy-N-((4-(oxazolo[4,5-b]pyridin-2-yl)phenyl)carbamothioyl)benzamide measured after 6 days by SRB assay. The following applies: time 6 day. It counts as functional.
Assay [29] concerns NCI-H1299. Kind of assay: Additive cytotoxicity against human NCI-H1299 cells measured in presence of 5 uM KU60019 after 2 days by SRB assay. The following applies: NCI-H1299, 48 h. It counts as functional, cell-based.
Assay [30] relates to NCI-H1299. The experiment in a line: Antagonistic cytotoxicity against human NCI-H1299 cells measured in presence of 50 nM AZD0156 after 2 days by SRB assay. It counts as functional, cell-based. The conditions noted are these: NCI-H1299, 48 h.
Assay [31] has as its system NCI-H1299. Kind of assay: Additive cytotoxicity against human NCI-H1299 cells assessed as combination index measured in presence of 5 uM KU60019 after 2 days by SRB assay. It counts as functional. The following applies: time 2 day.
Assay [32] relates to NCI-H1299. Kind of assay: Antagonistic cytotoxicity against human NCI-H1299 cells assessed as combination index measured in presence of 50 nM AZD0156 after 2 days by SRB assay. The assay is classed as functional. The conditions noted are these: time 2 day.
Assay [33] relates to SW480. Kind of assay: Antitumor activity against human SW480 cells xenografted in BALB/c nude mouse assessed as reduction in tumor weight at 20 mg/kg, ip. The assay is classed as functional, organism-based.
Assay [34] deals with SW480. Kind of assay: Antitumor activity against human SW480 cells xenografted in BALB/c nude mouse assessed as reduction in tumor weight at 20 mg/kg, ip in presence of 30 mg/kg, iv 2(((2-(2,4-dichlorobenzyl)oxy)naphthalen-1-yl)methyl)amino)ethan-1-ol. The assay is classed as functional, organism-based.
Assay [35] concerns MCF7. The experiment in a line: cells. The conditions noted are these: Homo sapiens, MCF7, 144 h. This is another data set of the same source.

pIC50: −log10 of the molar value. The source made the active and inactive calls. The calls are words filed in the database; no cut-off is given here.

Take `COc1cc([C@@H]2c3cc4c(cc3[C@@H](O[C@@H]3O[C@@H]5CO[C@@H](C)O[C@H]5[C@H](O)[C@H]3O)[C@H]3COC(=O)[C@H]23)OCO4)cc(OC)c1O` [ETOPOSIDE]: the pIC50 in the assay with SW480 [1] is 5.44; with SW480 [2], 5.44; in the assay on NCI-H1299 [18], 5.24; with NCI-H1299 [19], 5.05; in the assay on MCF7 [23], 6.23; with MCF7 [24], 6.25. The CI with SW480 [3] is listed as 1.7; in the assay with MCF7 [4], 0.73; with MCF7 [5], 1.01; in the assay on NCI-H1299 [20] it was 0.84; in the assay on NCI-H1299 [21], 0.82; with NCI-H1299 [22] it was 0.91. The result with MCF7 [6], with MCF7 [7], in the assay with MCF7 [9] and in the assay on MCF7 [10] was Active. In addition, in the assay on MCF7 [8], the Activity entry is “Dde”. Moreover, the inhibition result in assay [11], in assay [12], in assay [13] and in assay [14] was “Active” in each case. Further, the inhibition was 25% in assay [15], 53% in assay [16] and 41% in assay [17].

`CCc1c2c(nc3ccc(OC(=O)N4CCC(N5CCCCC5)CC4)cc13)-c1cc3c(c(=O)n1C2)COC(=O)[C@]3(O)CC` [IRINOTECAN]: the pIC50 in the assay with SW480 [1] was 4.91; in the assay on MCF7 [27], 5.62; in the assay with NCI-H1299 [29], 5.01; in the assay with NCI-H1299 [30], 4.82; with MCF7 [35], 6.68. The CI was determined as 3.4 in the assay on SW480 [3]; 0.16 in the assay on MCF7 [25]; 0.18 in the assay with MCF7 [26]; 1.49 in the assay with MCF7 [28]; 1.04 with NCI-H1299 [31]; 1.13 in the assay on NCI-H1299 [32]. Further, in the assay on NCI-H1299 [22], the CI came out at 1.1. Besides, the result in the assay with SW480 [33] and in the assay with SW480 [34] was Active.

For the origin of these results see ChEMBL document CHEMBL5154770, “Discovery of novel ataxia telangiectasia mutated (ATM) kinase modulators: Computational simulation, biological evaluation and cancer combinational chemotherapy study” (Eur J Med Chem, 2022).
